Measured values: US6987132B1, “Enediyne compounds and methods related thereto” (Advanced Research and Technology Institute, Inc., priority 2000, dated 2006)

What was measured:
[1] = Reactivity of enediyne ligand upon addition of metal salts at room temperature; assay type: physicochemical
[2] = Bergman enediyne cyclization temperature by differential scanning calorimetry (DSC) on neat materials; assay type: physicochemical; conditions: for Cyclization Temperature: free ligand, neat material, DSC, heating rate 10° C. min^−1; for Bergman cyclization temperature: comparison enediynes named in text, method not stated for them
Protocol: All preparations were carried out in an inert atmosphere (nitrogen) using Schlenk and drybox techniques. Chemicals used in the syntheses were of the highest purity available from Aldrich Chemical Company and used as received. Dichloromethane was dried and distilled from calcium hydride. The organic compounds were purified by flash chromatography with 60 Å Silica gel ([…]) using HPLC grade solvents. ^1H and ^13C NMR were recorded on VXR 400 MHz NMR spectrometer using the residual proton resonance as an internal reference. The multiplicity of the ^13C signals was determined by the DEPT technique. EI and FAB MS spectra were acquired on a Kratos MS-80 mass spectrometer that was interfaced with a Kratos DS90 data system. Differential scanning calorimetry traces were recorded on a General V4.1C DuPont 910 DSC differential scanning calorimeter coupled to a Dupont Thermal Analyst 2100 at a heating rate of 10° C. min^−1.

[3] = Thermal cyclization temperature and stability of free ligands in solution; conditions: for could tolerate heating to (temperature): free ligand in solution; for thermal cyclization temperature in solution: absence of metal
[4] = Pseudo first-order rate constant and half-life of thermal reactivity in DMSO by 1H NMR; assay type: physicochemical; conditions: 65° C., 20-fold cyclohexadiene
Source text: As is often observed in solution cyclization reactions of enediynes, a series of products was produced, which in this case included di-substituted benzenes, and as such no dominant species could be isolated from the reaction.

Cyclization Temperature [2]	SMILES	could tolerate heating to (temperature) [3]	thermal cyclization temperature in solution [3]	Bergman cyclization temperature [2]	also measured
	C(#Cc1cccnc1)C=CC#Cc1cccnc1 [1,6-bis(pyridine-3)hex-3-ene-1,5-diyne, reference compound]			195 °C	
186 °C	CN(C)CC#CC=CC#CCN(C)C [Compound 4, 1,8-bis(dimethylamino)oct-4-ene-2,6-diyne]				
106 °C	NCC#CC=CC#CCN [Compound 12, 1,8-diaminooct-4-ene-2,6-diyne]	about 50 °C	about 65 °C		decrease in the Bergman cyclization temperature ([2]; relative to the preceding compound of the series 4, 9, 12): 37 °C; pseudo first-order rate constant kobs [4]: 0.0416 h⁻¹
	C(#CCOc1cccnc1)C=CC#CCOc1cccnc1 [bpod, 1,8-bis(pyridine-3-oxy)oct-4-ene-2,6-diyne, reference compound]			136 °C	

SMILES	Cyclization Temperature [2]	could tolerate heating to (temperature) [3]	thermal cyclization temperature in solution [3]	Bergman cyclization temperature [2]	also measured
C(#CCN=Cc1ccccn1)/C=C\C#CCN=Cc1ccccn1 (stereo in doubt) [Compound 14, (Z)-N,N′-Bis[1-pyridin-2-yl-meth-(E)-ylidene]oct-4-ene-2,6-diyne-1,8-diamine]	100 °C	about 50 °C	about 55 °C		time to reaction completion ([1]; addition of MgCl2, no additional heating): 2 h; time to reaction completion ([1]; addition of zinc acetate): 0.083 h; observation upon addition of Zn(II) or Cu(II) ([1]; room temperature): turned black instantaneously
